Results on nine molecules are retold here after US7776570B2, “L-amino acid amide asymmetric hydrolase and DNA encoding the same” (Mitsubishi Gas Chemical Company, Inc., priority 2004, dated 2010).

Assay [1] relates to X. flavus living cells. As to the kind of experiment: Asymmetric hydrolysis of 2-methylcysteine amide racemic mixture by using a wild-type microorganism. The format is biochemical, Xanthobacter flavus. Conditions: for 2-methylcysteine produced: 30° C., 24 hours, HPLC condition B; for optical purity of the L-amino acid: supernatant, HPLC condition A. As to the method: A medium having a composition as shown in the following Table 5 was prepared, and 200 mL of the medium was poured into a 1-L conical flask and sterilized. After that, X. flavus was inoculated thereto and shaking culture was performed at 30° C. for 170 hours. Subsequently, the culture solution was subjected to centrifugation, to thereby obtain living cells corresponding to 0.1 g of dry cells.
10.0 g (58.6 mmol) of racemic mixture of 2-methylcysteine amide hydrochloride was dissolved into 300 mL of 50 mM phosphate buffer (pH 7.0). After that, the mixture was poured into a 500-mL flask, which was added with an aqueous manganese chloride solution such that the concentration of a divalent Mn ion became 10 ppm, and further added with the living cells corresponding to 0.01 g of dry cells, followed by stirring culture at 30° C. for 24 hours under a nitrogen stream to allow a hydrolysis reaction to proceed. After completion of the reaction, the reaction solution was subjected to centrifugation to remove the cells, and the supernatant was analyzed under the HPLC condition B as shown in the following Table 6.
10 L of the culture solution obtained after culture in the medium composition in Comparative Example 1 was subjected to centrifugation, to thereby obtain living cells corresponding to 5 g of dry cells of X. flavus. 10.0 g (58.6 mmol) of a racemic mixture of 2-methylcysteine amide hydrochloride was dissolved into 300 mL of 50 mM phosphate buffer (pH 7.0). After that, the mixture was poured into 500-mL flask, which was added with an aqueous manganese chloride solution such that the concentration of a divalent Mn ion became 10 ppm, and further added with the living cells corresponding to 5 g of dry cells, followed by stirring culture at 30° C. for 24 hours under a nitrogen stream to allow a hydrolysis reaction to proceed. After completion of the reaction, the reaction solution was subjected to centrifugation to remove the cells therefrom, and the supernatant was analyzed under the HPLC condition B. As a result, it was confirmed that 28.2 mmol of 2-methylcysteine was produced. In addition, the supernatant was analyzed under the HPLC condition A, and as a result, the optical purity of the L-amino acid was not less than 98% e.e.
A biochemical asymmetric hydrolysis reaction was performed in the same manner as in Comparative Example 2 except that the aqueous manganese chloride solution was not added. The reaction was performed at 30° C. for 24 hours. After completion of the reaction, the reaction solution was subjected to centrifugation to remove the cells therefrom, and then the supernatant was analyzed under the HPLC condition B. As a result, it was confirmed that 13.9 mmol of 2-methylcysteine was produced. In addition, the supernatant was analyzed under the HPLC condition A, and as a result, the optical purity of the L-amino acid was not less than 98% e.e.

The subject of assay [2] is L-amino acid amide asymmetric hydrolase (transformant strain pMCA1/JM109 cells). Nature of the assay: Asymmetric hydrolysis of racemic amino acid amides by using the transformant pMCA1/JM109. Format: biochemical, Xanthobacter flavus. As to conditions: 0.1% substrate, 50 mM phosphate buffer pH 7.0, 30° C. As to the method:
A medium having a composition as shown in the following Table 3 was prepared, and 200 mL of the medium was poured into 1-L conical flask and sterilized. After that, the medium was added with 50 μg/mL ampicillin and then inoculated with the transformant strain pMCA1/JM109, followed by shaking culture at 37° C. for 15 hours. Subsequently, the culture solution was subjected to centrifugation, to thereby obtain living cells corresponding to 0.1 g of dry cells.
Enzymatic reactions were performed by using a culture solution of the transformant strain pMCA 1/JM109 which had been cultured in the same manner as in Example 7 and a racemic mixture of various amino acid amides as a substrate. Each of the substrate compound was dissolved into 50 mM phosphate buffer (pH 7.0) such that the substrate concentration was adjusted to 0.1%, and the substrate solution was added with the cells to perform an enzymatic reaction at 30° C. […] In any of the reactions, selectivity of hydrolysis is selective to an L-form, and optical purity of the produced L-amino acid was not less than 98% e.e.

The mark [3] stands for this setting: 5 g dry cells, no manganese chloride added.
Where [4] appears, read: substrate weight/dry cell weight 0.01, reaction time 24 hr.
The mark [5] stands for this setting: substrate weight/dry cell weight 0.01, reaction time 5 hr.
The mark [6] stands for this setting: substrate weight/dry cell weight 0.1, reaction time 24 hr.

On to `C[C@](N)(CS)C(N)=O.Cl` (racemic) [2-methylcysteine amide, 2-methylcysteine amide hydrochloride], for which the 2-methylcysteine produced entry in assay [1] (0.01 g dry cells, 58.6 mmol substrate, 10 ppm divalent Mn ion) is “no 2-methylcysteine as a product was observed”; in assay [1] (5 g dry cells, 58.6 mmol substrate, 10 ppm divalent Mn ion), 28.2 mmol; in assay [1] (setting [3]), 13.9 mmol. For the same molecule, the “optical purity of the L-amino acid” value is recorded as “not less than 98 % e.e” in assay [1] (5 g dry cells, 10 ppm divalent Mn ion) and “not less than 98 % e.e” in assay [1] (setting [3]).

The molecule Allicin amide ethylene acetal gave a Reaction rate in assay [2] (setting [4]) of 44.3%. On to `NC(=O)[C@@H](N)Cc1ccccc1` (racemic) [Phenylalanine amide], for which, in assay [2] (setting [5]), the Reaction rate came out at 47.8%. Regarding `CC(C)(S)[C@H](N)C(N)=O` (racemic) [penicillamine amide], the Reaction rate in assay [2] (setting [5]) was determined as 44.9%. As to `CC1(C)SCNC1C(N)=O` (stereo not shown) [5,5-dimethylthiazolidin-4-carboxylate amide], in assay [2] (setting [6]), the Reaction rate is 47.0%. In turn, `NC(=O)C(N)c1ccccc1` (racemic) [Phenylglycine amide] came in with a Reaction rate in assay [2] (setting [5]) of 48.8%. In assay [2] (setting [4]), `CC(C)[C@H](N)C(N)=O` (racemic) [Valine amide] yielded a Reaction rate of 44.3%. Turning to `CCC(N)C(N)=O` (stereo not shown) [2-amino butyrate amide], the Reaction rate in assay [2] (substrate weight/dry cell weight 0.1, reaction time 5 hr) is on record as 49.2%. With `CC(C)(C)[C@H](N)C(N)=O` (racemic) [t-leucine amide], in assay [2] (setting [6]), the Reaction rate turned out to be 44.4%.
